Data reported in the supplement of paper PMC13380429.

Key:
Conditions in all cases: 72 h
HepG2 [1] = assay: relative viability EC50 (midpoint between 100% and the lowest measured viability); higher = less toxic
Calu-3 [2] = assay: as above
HepG2 [3] = assay: cell viability relative to DMSO; higher = less toxic
Calu-3 [4] = assay: as above
HepG2 [5] = assay: drug sensitivity score (DSS) for viability; higher = more toxic; extreme values may be limits of the assay
Calu-3 [6] = assay: as above
U2OS [7] = assay: cell viability relative to DMSO; higher = less toxic
Caco-2 [8] = assay: as above
Vero E6 [9] = assay: as above
U2OS [10] = assay: drug sensitivity score (DSS) for viability; higher = more toxic; extreme values may be limits of the assay
Caco-2 [11] = assay: as above
Vero E6 [12] = assay: as above
U2OS [13] = assay: relative viability EC50 (midpoint between 100% and the lowest measured viability); higher = less toxic
Caco-2 [14] = assay: as above
Vero E6 [15] = assay: as above

| SMILES | relative viability EC50 (HepG2 [1]) [µM] | relative viability EC50 (Calu-3 [2]) [µM] | cell viability (HepG2 [3]; 1 nM) [%] | cell viability (HepG2 [3]; 10 nM) [%] | cell viability (HepG2 [3]; 100 nM) [%] | cell viability (HepG2 [3]; 1000 nM) [%] | cell viability (HepG2 [3]; 10000 nM) [%] | cell viability (Calu-3 [4]; 1 nM) [%] | cell viability (Calu-3 [4]; 10 nM) [%] | cell viability (Calu-3 [4]; 100 nM) [%] | cell viability (Calu-3 [4]; 1000 nM) [%] | cell viability (Calu-3 [4]; 10000 nM) [%] | drug sensitivity score (HepG2 [5]) | drug sensitivity score (Calu-3 [6]) | cell viability (U2OS [7]; 1 nM) [%] | cell viability (U2OS [7]; 10 nM) [%] | cell viability (U2OS [7]; 100 nM) [%] | cell viability (U2OS [7]; 1000 nM) [%] | cell viability (U2OS [7]; 10000 nM) [%] | cell viability (Caco-2 [8]; 1 nM) [%] | cell viability (Caco-2 [8]; 10 nM) [%] | cell viability (Caco-2 [8]; 100 nM) [%] | cell viability (Caco-2 [8]; 1000 nM) [%] | cell viability (Caco-2 [8]; 10000 nM) [%] | cell viability (Vero E6 [9]; 1 nM) [%] | cell viability (Vero E6 [9]; 10 nM) [%] | cell viability (Vero E6 [9]; 100 nM) [%] | cell viability (Vero E6 [9]; 1000 nM) [%] | cell viability (Vero E6 [9]; 10000 nM) [%] | drug sensitivity score (U2OS [10]) | drug sensitivity score (Caco-2 [11]) | drug sensitivity score (Vero E6 [12]) | relative viability EC50 (U2OS [13]) [µM] | relative viability EC50 (Caco-2 [14]) [µM] | relative viability EC50 (Vero E6 [15]) [µM] |
| --- | --- | --- | --- | --- | --- | --- | --- | --- | --- | --- | --- | --- | --- | --- | --- | --- | --- | --- | --- | --- | --- | --- | --- | --- | --- | --- | --- | --- | --- | --- | --- | --- | --- | --- | --- |
| CC(C)(NS(=O)(=O)c1ccc(Oc2ccc(F)cc2)cc1)C(=O)NO | > 10 | > 10 | 110 | 111 | 98.3 | 110 | 80.7 | 106 | 96.3 | 98.9 | 97.9 | 94.3 | 0.3 | 0 |  |  |  |  |  |  |  |  |  |  |  |  |  |  |  |  |  |  |  |  |  |
| CCc1cc(-c2[nH]nc(C)c2-c2ccc3c(c2)OCCO3)c(O)cc1O | 1.68 |  | 94.7 | 91.1 | 104 | 81.1 | 11.1 | 93.2 | 94.6 | 101 | 89.7 | 58.8 | 8 | 3.7 | 99.2 | 94.9 | 98.3 | 99.7 | 65.6 | 103 | 92 | 98 | 89.7 | 53 | 99.4 | 104 | 101 | 95.9 | 67.9 | 1.6 | 4.1 | 2.1 |  |  |  |
| Cc1nc2sccn2c(=O)c1CCN1CCC(=C(c2ccccc2)c2ccc(F)cc2)CC1 | > 10 |  | 104 | 96.3 | 100 | 96.9 | 95.8 |  |  |  |  |  | 0 |  | 95.6 | 97.6 | 97.3 | 98.7 | 95 | 95.3 | 86.7 | 97 | 98.4 | 97.2 | 102 | 101 | 107 | 100 | 94.5 | 0 | 0 | 0 | > 10 | > 10 | > 10 |
| Cn1c(=O)cnn(CCCCN2CCN(c3ncccn3)CC2)c1=O | > 10 | > 10 | 111 | 114 | 95.2 | 116 | 106 | 111 | 91.3 | 102 | 120 | 103 | 0 | 0 | 103 | 97.1 | 103 | 97.8 | 103 |  |  |  |  |  |  |  |  |  |  | 0 |  |  | > 10 |  |  |
| O=C(NOCC1CC1)c1ccc(F)c(F)c1Nc1ccc(I)cc1Cl | 0.277 |  | 96.9 | 89.3 | 84.2 | 31.6 | 19.4 |  |  |  |  |  | 14.6 |  | 101 | 97.1 | 94.9 | 91.4 | 85.3 | 97.4 | 94.6 | 89.3 | 75.3 | 65.6 | 94.5 | 98.5 | 84.4 | 65.9 | 50.6 | 0.4 | 5.1 | 7.9 | > 10 |  |  |
| CC(C)[C@@H](C(=O)Nc1nccs1)c1ccc(Cl)cc1 [4-CMTB] |  |  | 95.7 | 95.4 | 94.1 | 99.7 | 63.3 | 111 | 107 | 102 | 97.8 | 68.1 | 1.8 | 1.8 | 104 | 108 | 106 | 102 | 85.5 |  |  |  |  |  | 107 | 107 | 98 | 96.4 | 92.9 | 0.1 |  | 0 | > 10 |  | > 10 |
| Cc1nc(NC(=O)N2CCC[C@H]2C(N)=O)sc1-c1csc(C(C)(C)C)n1 [A66] | > 10 |  | 84.2 | 96 | 84 | 89.8 | 73.3 |  |  |  |  |  | 0 |  | 103 | 97.4 | 98.6 | 93 | 88.7 | 98.5 | 87.5 | 95.8 | 92 | 78.9 | 98.5 | 96.5 | 95.3 | 101 | 87.9 | 0 | 1 | 0 | > 10 | > 10 | > 10 |
| CCCn1c(=O)c2[nH]c(C3CCCC3)nc2n(CCC)c1=O [DPCPX] | > 10 |  | 102 | 105 | 99.8 | 101 | 91.5 |  |  |  |  |  | 0 |  | 100 | 102 | 99.8 | 96.6 | 100 | 105 | 106 | 106 | 106 | 93.3 | 106 | 107 | 98.2 | 99.8 | 89.1 | 0 | 0 | 0 | > 10 | > 10 | > 10 |
| COC(=O)N[C@@H](C)CNc1nccc(-c2cn(C(C)C)nc2-c2cc(Cl)cc(NS(C)(=O)=O)c2F)n1 [Encorafenib (LGX818)] | 0.37 |  | 96.2 | 91.7 | 79.7 | 38.4 | 11.1 |  |  |  |  |  | 14.2 |  | 101 | 104 | 106 | 94.2 | 82 | 103 | 89.5 | 97 | 88.4 | 69.5 | 106 | 106 | 109 | 116 | 71.6 | 1.1 | 2.4 | 0.7 | > 10 |  |  |
| CSc1nc2ccc3nc(NC(=O)C(c4ccccc4)c4ccccc4)sc3c2s1 [Gue-1654] | > 10 |  | 96.4 | 106 | 98.3 | 102 | 92.6 |  |  |  |  |  | 0 |  | 100 | 95.9 | 98.8 | 97.1 | 98.2 | 100 | 100 | 94.7 | 93.6 | 80.5 | 104 | 107 | 99.6 | 97.8 | 105 | 0 | 0.7 | 0 | > 10 | > 10 | > 10 |
| CCC(CC)Nc1nc(C)c(-c2ccc(OC(F)(F)F)cc2OC)nc1OC [NGD-98-2] | > 10 |  | 102 | 98.8 | 90.8 | 100 | 96.3 |  |  |  |  |  | 0 |  | 98.7 | 98.5 | 95.1 | 99.3 | 97.7 | 94.8 | 92.9 | 96.3 | 90.9 | 81.6 | 99.9 | 104 | 100 | 99.1 | 99.2 | 0 | 0.6 | 0 | > 10 | > 10 | > 10 |
| Cc1ccc(-c2nn(C(C)(C)CNC(=O)c3ncccc3C)c3ncnc(N)c23)cc1 [WEHI-345-analog] | 2.49 |  | 109 | 97.5 | 99.7 | 94.6 | 34.2 | 99.6 | 110 | 86 | 97.8 | 52.2 | 4.5 | 2.8 | 98.3 | 108 | 94.3 | 104 | 38.4 | 96.3 | 100 | 95.5 | 101 | 58.9 | 100 | 97.7 | 99.8 | 95.7 | 37.2 | 3 | 2 | 4.1 | 3.51 |  | 2.62 |
| COc1cc(Nc2ncc3c(n2)-c2ccc(Cl)cc2C(c2c(F)cccc2OC)=NC3)ccc1C(=O)O [alisertib] |  | > 10 | 102 | 98 | 58.7 | 66.6 | 61.4 | 106 | 105 | 98.1 | 88.4 | 78.8 | 13.1 | 1.6 | 102 | 99.7 | 81.5 | 78.2 | 58.6 | 102 | 90 | 83 | 87.9 | 72.8 | 96.3 | 103 | 84.4 | 82.7 | 67 | 5.7 | 3.5 | 4.1 |  |  |  |
| CCOC(=O)OC(C)OC1=C(C(=O)Nc2ccccn2)N(C)S(=O)(=O)c2ccccc21 (stereo not given) [ampiroxicam] | > 10 |  | 91.9 | 102 | 101 | 101 | 103 |  |  |  |  |  | 0 |  | 97.2 | 102 | 93.9 | 98 | 95 | 94.6 | 99.9 | 86.5 | 96.9 | 97.3 |  |  |  |  |  | 0 | 0 |  | > 10 | > 10 |  |
| O=C1[O][SbH]23[O]C(=O)C([O]2)C2[O][SbH]4([O]C(=O)C([O]4)C1[O]3)[O]C2=O [antimonyl] | 2.48 |  | 96.3 | 105 | 101 | 95.7 | 48 |  |  |  |  |  | 3.4 |  | 95.6 | 97.1 | 97.6 | 96.5 | 84.8 | 106 | 94.7 | 99.2 | 84.7 | 71.5 | 98.7 | 103 | 106 | 107 | 102 | 0.5 | 2.8 | 0 | > 10 |  | > 10 |
| CNC(=O)[C@H](Cc1ccccc1)NC(=O)[C@H](CC(C)C)[C@H](CSc1cccs1)C(=O)NO [batimastat] | > 10 |  | 98.2 | 95.6 | 99 | 90.9 | 93.6 | 92.9 | 96.2 | 89.4 | 82.9 | 65.5 | 0 | 3.8 | 94.3 | 105 | 97 | 98.4 | 90.1 | 94.1 | 105 | 92.8 | 94.2 | 85 | 93.4 | 97.7 | 92.3 | 84.4 | 83.8 | 0 | 0.3 | 1.4 | > 10 | > 10 | > 10 |
